The test system of this assay is C3AKF1 mice, hamster liver cystadenocarcinoma s.c., tumor weight T/C. Nature of the assay: NCI In Vivo Anticancer Drug Screen. Data for tumor model Cystadenocarcinoma, Liver (No. 1) (Hamster) (subcutaneous) in C3AKF1 (CHKRF1) mice. The settings on record: endpoint: mean tumor weight, schedule: Q01DX010 (ip), higher = larger tumour. The procedure: The antitumor activity of compounds was measured in mice bearing transplantable tumors. Survival or tumor size were measured and the results are expressed as the measurement made in the treated group (T) divided by the measurement made in the vehicle treated control group (C). The tumor model used in this assay is Cystadenocarcinoma, Liver (No. 1) (Hamster) (subcutaneous) in C3AKF1 (CHKRF1) mice

Setting [1] is: dose: 1.5 mg/kg/injection, vehicle: carboxymethylcellulose (CMC).
Where [2] appears, read: dose: 3.0 mg/kg/injection, vehicle: carboxymethylcellulose (CMC).
Where [3] appears, read: dose: 100.0 mg/kg/injection, vehicle: carboxymethylcellulose (CMC).
Where [4] appears, read: dose: 50.0 mg/kg/injection, vehicle: carboxymethylcellulose (CMC).
Where [5] appears, read: dose: 200.0 mg/kg/injection, vehicle: carboxymethylcellulose (CMC).
Setting [6] is: dose: 400.0 mg/kg/injection, vehicle: carboxymethylcellulose (CMC).
Where [7] appears, read: dose: 30.0 mg/kg/injection, vehicle: carboxymethylcellulose (CMC).
Setting [8] is: dose: 60.0 mg/kg/injection, vehicle: carboxymethylcellulose (CMC).
[9] abbreviates: dose: 25.0 mg/kg/injection, vehicle: carboxymethylcellulose (CMC).

Each structure is given as a SMILES string. Where “and” joins values, the source holds several entries; their conditions need not be identical. Equal entries are not always repeated. Results filed as inconclusive are left out.

In the case of `Cc1nc(N)nc(N)c1-c1ccc(Cl)c(Cl)c1`, the T/C (dose: 0.75 mg/kg/injection, vehicle: carboxymethylcellulose (CMC)) was 83 % of control; the T/C under setting [1] is 106 % of control; the T/C under setting [2] was 100 % of control.

For `CC1(C)N=C(N)N=C(N)N1c1cccc(Br)c1`, the T/C is 82 % of control (dose: 4.4 mg/kg/injection, vehicle: carboxymethylcellulose (CMC)) and 84 % of control (dose: 6.6 mg/kg/injection, vehicle: carboxymethylcellulose (CMC)).

Consider `CC(CCc1cccc2ccccc12)(C(=O)O)C(=O)O`, for which the T/C under setting [3] is 96 % of control.

As for `Nc1nc(N)c(N=Nc2ccccc2)c(=O)[nH]1`, the T/C was 100 % of control under setting [4], 110 % of control under setting [3], 93 % of control under setting [5] and 100 % of control under setting [6].

In the case of `Clc1ccc2c(Cl)ncnc2c1`, the T/C is 116 % of control (dose: 4.8 mg/kg/injection, vehicle: carboxymethylcellulose (CMC)); 110 % of control (dose: 9.5 mg/kg/injection, vehicle: carboxymethylcellulose (CMC)); 96 % of control (dose: 19.0 mg/kg/injection, vehicle: carboxymethylcellulose (CMC)); 104 % of control (dose: 37.5 mg/kg/injection, vehicle: carboxymethylcellulose (CMC)).

As for `S=c1c2[nH]cnc2ncn1CCSC1=NC=NC2=NC=NC21` (stereo unspecified), the T/C runs as follows: under setting [3], 95 % of control; under setting [5], 100 % of control; under setting [6], 97 % of control; (dose: 600.0 mg/kg/injection, vehicle: carboxymethylcellulose (CMC)) 93 % of control.

With `CC1CC(C)OS(=O)O1` (stereo unspecified), the T/C (dose: 44.0 mg/kg/injection, vehicle: saline) was 65 % of control and the T/C (dose: 66.0 mg/kg/injection, vehicle: saline) was 81 % of control.

Consider `O=C(O)c1ccc(-c2ccccc2)cc1`, for which the T/C is 95 % of control under setting [4] and 49 % of control under setting [3].

Take `CCCCn1cnc2c(SC)nc(N)nc21`: the T/C by setting is: under setting [7], 88 % of control; under setting [8], 74 % of control; (dose: 115.0 mg/kg/injection, vehicle: carboxymethylcellulose (CMC)) 75 % of control.

Regarding `CN(C)CCCN1c2ccccc2Sc2ccc(C(F)(F)F)cc21`, the T/C (dose: 12.0 mg/kg/injection, vehicle: saline) is 84 % of control.

With `Nc1ncnc2c1ncn2C1CCCO1` (stereo unspecified), the T/C is, setting by setting: under setting [9], 107 % of control; under setting [4], 107 % of control; under setting [5], 69 % of control.

With `Oc1ccc2ccccc2c1N=Nc1ccccc1`, the T/C runs as follows: under setting [9], 102 % of control; under setting [4], 84 % of control; under setting [3], 75 % of control; under setting [5], 72 % of control.

As for `CSc1ncc(Br)c(Sc2nc(N)nc3nc[nH]c23)n1`, the T/C is, setting by setting: under setting [1], 106 % of control; under setting [2], 117 % of control; (dose: 6.0 mg/kg/injection, vehicle: carboxymethylcellulose (CMC)) 92 % of control; (dose: 12.0 mg/kg/injection, vehicle: carboxymethylcellulose (CMC)) 74 % of control and 85 % of control and 92 % of control; (dose: 18.0 mg/kg/injection, vehicle: carboxymethylcellulose (CMC)) 103 % of control; (dose: 27.0 mg/kg/injection, vehicle: carboxymethylcellulose (CMC)) 77 % of control and 81 % of control. Further, the T/C (dose: 40.0 mg/kg/injection, vehicle: carboxymethylcellulose (CMC)) was 65 % of control.

`CCC1=C(c2cc(Cl)c3ccccc3c2OCC(=O)O)OC(CC)(C(=O)c2cc(Cl)c3ccccc3c2OCC(=O)O)CC1` (stereo unspecified): the T/C reads like this: under setting [7], 90 % of control; under setting [8], 87 % of control; (dose: 120.0 mg/kg/injection, vehicle: carboxymethylcellulose (CMC)) 64 % of control.

For `CC(C)CCSc1nc(N)nc2nc[nH]c12`, the T/C is 74 % of control (dose: 45.0 mg/kg/injection, vehicle: carboxymethylcellulose (CMC)); 70 % of control (dose: 90.0 mg/kg/injection, vehicle: carboxymethylcellulose (CMC)); 94 % of control (dose: 180.0 mg/kg/injection, vehicle: carboxymethylcellulose (CMC)).

For `N#CCSc1nc(N)nc2nc[nH]c12`, the T/C is, setting by setting: (dose: 2.0 mg/kg/injection, vehicle: carboxymethylcellulose (CMC)) 87 % of control; (dose: 4.0 mg/kg/injection, vehicle: carboxymethylcellulose (CMC)) 102 % of control; (dose: 8.0 mg/kg/injection, vehicle: carboxymethylcellulose (CMC)) 98 % of control; (dose: 16.0 mg/kg/injection, vehicle: carboxymethylcellulose (CMC)) 99 % of control.

For the molecule `CCC(=O)NC1=C(N2CC2)C(=O)C(NC(=O)CC)=C(N2CC2)C1=O`, the T/C (dose: 0.6 mg/kg/injection, vehicle: saline) was 97 % of control and the T/C (dose: 1.2 mg/kg/injection, vehicle: saline) was 76 % of control.

`CCCCCCCCCCCC[n+]1ccc(C)cc1C`: the T/C is, setting by setting: (dose: 0.06 mg/kg/injection, vehicle: saline) 71 % of control; (dose: 0.12 mg/kg/injection, vehicle: saline) 75 % of control; (dose: 0.25 mg/kg/injection, vehicle: saline) 85 % of control.

As for `CCCCCCCCCC(C)(O)C#CC(C)(O)CCCCCCCCC` (stereo unspecified), the T/C was 86 % of control (dose: 12.5 mg/kg/injection, vehicle: carboxymethylcellulose (CMC)); 74 % of control under setting [9]; 96 % of control under setting [4]; 64 % of control under setting [3].

For `CCCn1cnc2c(SCc3ccccc3Cl)nc(N)nc21`, the T/C is 88 % of control under setting [9]; 90 % of control and 105 % of control under setting [3]; 96 % of control under setting [6].

As for `CCOC(=O)NC`, the T/C was 64 % of control (dose: 75.0 mg/kg/injection, vehicle: saline); 83 % of control (dose: 150.0 mg/kg/injection, vehicle: saline); 93 % of control (dose: 300.0 mg/kg/injection, vehicle: saline); 83 % of control (dose: 600.0 mg/kg/injection, vehicle: saline).

The values above are taken from PubChem BioAssay AID234 (DTP/NCI, 2004).
